# From PMC2714422 (Journal of medicinal chemistry, 2009)
# Entries after “also recorded” stand apart in the source; their conditions may differ.
# Legend:
# [1] = hydrochloride salt form of 5; prior formulation work, ref not given; cited from earlier work
# [2] = tested on: SK-Mel cells; experiment: Cellular polyamine levels in SK-Mel cells, compound alone; type: cell-based, human; conditions: 10 µM for 24 hrs
# [3] = tested on: MDA-MB-231 cells; experiment: Cellular polyamine depletion, PTI plus DFMO; type: cell-based, human; conditions: 5 days, 30 µM 5 or 0.1 µM 11 with 5.0 mM DFMO, 0.5 µM spermidine, 1.0 mM aminoguanidine
# [4] = tested on: squamous cell carcinoma (SCC) tumors; experiment: K6/ODC transgenic mouse squamous cell carcinoma model; type: in vivo
# [5] = DFMO 0.5% in drinking water + 0.5 mg/kg 11 i.p. twice daily, 4 weeks
compound,measurement,setting,value
"NCCCC[C@@H](N)C(=O)NCCCNCCCCNCCCN [Compound 5, D-Lys-Spm]","oral bioavailability, hydrochloride salt form",[1],< 1%
CCCCCCCC(=O)NCCCC[C@H](N)C(=O)NCCCNCCCCNCCCN [Compound 8],"level of cellular polyamines, compound added alone",[2],none of these agents influenced the level of cellular polyamines
"CCCCCCCCCCCCCCCC(=O)NCCCC[C@H](N)C(=O)NCCCNCCCCNCCCN [Compound 10, L-Lys-ε-(palmitoyl)-N^1-spermine]","level of cellular polyamines, compound added alone",[2],none of these agents influenced the level of cellular polyamines
"CCCCCCCCCCCCCCCC(=O)NCCCC[C@@H](N)C(=O)NCCCNCCCCNCCCN [Compound 11, D-Lys-ε-(palmitoyl)-N^1-spermine]","polyamine levels of the cell, combination with DFMO",[3],potent reduction in the polyamine levels
same,toxicity at efficacious dose level,"[4]; 11 at 0.5 mg/kg i.p. twice daily with DFMO, mice",no apparent toxicity
same,SCCs with complete or near-complete responses (>95% volume reduction),[4]; [5],71%
same,number of SCCs with complete responses out of 17,[4]; [5],9
"NCCC[C@](N)(C(=O)O)C(F)F [DFMO, α-difluoromethylornithine, reference compound]",tumor growth effect of DFMO alone,[4]; DFMO alone in drinking water,moderate tumor growth inhibitory effects; also recorded: weak effect
same,DFMO alone treated tumors that re-grew,"[4]; DFMO alone, 6 weeks off-treatment after 4 week treatment",11 of 12
